Measurements from US20250051321A1, “TRICYCLIC DERIVATIVE AND PREPARATION METHOD THEREFOR AND APPLICATION THEREOF” (SHANGHAI JEMINCARE PHARMACEUTICAL CO., LTD., priority 2021, published 2025).
Where two headings read alike, the source gives them in different places.

Columns and labels:
[1] = Pharmacokinetic test in mice; format: in vivo, ICR mice; conditions: male, ICR, mouse, plasma; for clearance: read-out: CL (mL/min/kg, IV); for bioavailability: PO - 5 mpk vs IV - 1 mpk
Procedure: Dosage preparation: The dosing solution was prepared on the day of dosing. 2 mg of compound was weighed and dissolved in 5% DMSO+10% solutol+85% saline to prepare a solution for intravenous administration at a concentration of 0.2 mg/mL. 2 mg of compound was weighed and dissolved in 25% PEG 200+75% (0.5% MC) to obtain a solution for oral administration at a concentration of 1 mg/mL.
Six healthy male naïve ICR mice, weighing 25 to 30 g, were divided into two groups (intravenous and oral groups) with three in each group, and administered in a single dose. After 3 days of acclimatization, the mice were fasted overnight (10 to 12 hours) the night before the experiment, but had free access to water during the experiment, and the diet was resumed 4 hours after administration. After intravenous and oral administration, the timer was started. Blood was collected via the orbital venous plexus at the scheduled time points (IV&PO: 0.083, 0.25, 0.5, 1, 2, 4, 6, 8, and 24 hours). 40 μL of whole blood was collected at each point and added to a 1.5 mL EP tube containing sodium heparin. The collected whole blood was vibrated twice on a vortex mixer, mixed well, placed on wet ice, and centrifuged at 8000 rpm for 5 minutes at 4° C. within 1 hour. The supernatant plasma was stored in a −80° C. freezer until processing for analysis.

[2] = tested on: plasma LPA 18:1 and LPA 18:2; assay: Human plasma ex vivo assay (LPA 18:1 / 18:2 by LC-MS/MS); format: biochemical; conditions: 37° C., 2 hours
Outline: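 Human plasma incubated 2 h at 37° C with compound (8 points, 1:3 dilution, top 10 μM, 0.1% DMSO), then quenched with 0.1% FA containing LPA 17:0 internal standard.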

[3] = target: ATX (Homo sapiens (Human), UniProt Q13822); assay: ATX enzyme inhibition assay (Amplex UltraRed/choline oxidase/HRP, 16:0 Lyso PC substrate); format: biochemical; conditions: assay buffer pH 8.5; read-out: IC50 (nM) pH 8.5
Outline: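 ATX (2× stock […]) preincubated with compound for 10 min at room temperature in assay buffer at pH 8.5 or 7.5. Reaction started with 16:0 Lyso PC, choline oxidase, HRP and Amplex UltraRed (2.5× working stock); fluorescence read kinetically (ex 550/em 590 nm) for 60 min.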

[4] = LPA 18:1, read-out: Human plasma ex vivo assay IC50 (18:1 LPA)
[5] = LPA 18:2, read-out: Human plasma ex vivo assay IC50 (18:2 LPA)

**Q.** Which results are given for `Cc1cc(N2CC3(CN(C(=O)C(C)(C)O)C3)C2)cc2c(N(C)c3nc(-c4ccc(F)cc4)c(C#N)s3)c3c(nc12)CCO3` [Example C27]?
**A.** AUC ([1]; 5 mg/kg, PO - 5 mpk): 27600 ng·h/mL; Cmax ([1]; 5 mg/kg, PO - 5 mpk): 2010 ng/mL; Tmax ([1]; 5 mg/kg, PO - 5 mpk): 6.67 h; half-life ([1]; 5 mg/kg, PO - 5 mpk): 3.98 h

**Q.** For `CN(c1nc(-c2ccc(F)cc2)c(C#N)s1)c1c2c(nc3c(F)cc(N4CC5(CN(C(=O)C(C)(C)O)C5)C4)cc13)CC2` [Example C28], which AUC ([1]; 1 mg/kg, IV - 1 mpk) is on record?
**A.** 14100 ng·h/mL

**Q.** What about the C0 ([1]; 1 mg/kg, IV - 1 mpk) of the same molecule?
**A.** 2110 ng/mL

**Q.** What about the half-life ([1]; 1 mg/kg, IV - 1 mpk) of the same molecule?
**A.** 3.63 h

**Q.** And the clearance ([1]; 1 mg/kg, IV - 1 mpk)?
**A.** 1.21 mL/min/kg

**Q.** And the AUC ([1]; 5 mg/kg, PO - 5 mpk)?
**A.** 125000 ng·h/mL

**Q.** What about the Cmax ([1]; 5 mg/kg, PO - 5 mpk) of the same molecule?
**A.** 10200 ng/mL

**Q.** And the Tmax ([1]; 5 mg/kg, PO - 5 mpk)?
**A.** 3 h

**Q.** And the half-life ([1]; 5 mg/kg, PO - 5 mpk)?
**A.** 2.82 h

**Q.** And the bioavailability ([1]; 5 mg/kg)?
**A.** 176%

**Q.** What about the IC50 [2, 4] of the same molecule?
**A.** 545 nM

**Q.** And the IC50 [2, 5]?
**A.** 574 nM

**Q.** Which AUC ([1]; 1 mg/kg, IV - 1 mpk) does the source give for `Cc1cc(N2CC3(CN(C(=O)C(C)(C)O)C3)C2)nc2c(N(C)c3nc(-c4ccc(F)cc4)c(C#N)s3)c3c(nc12)CC3` [Example C29] here?
**A.** 12600 ng·h/mL

**Q.** What about the C0 ([1]; 1 mg/kg, IV - 1 mpk) of the same molecule?
**A.** 2600 ng/mL

**Q.** What about the half-life ([1]; 1 mg/kg, IV - 1 mpk) of the same molecule?
**A.** 2.73 h

**Q.** What about the clearance ([1]; 1 mg/kg, IV - 1 mpk) of the same molecule?
**A.** 1.39 mL/min/kg

**Q.** And the AUC ([1]; 5 mg/kg, PO - 5 mpk)?
**A.** 36500 ng·h/mL

**Q.** What about the Cmax ([1]; 5 mg/kg, PO - 5 mpk) of the same molecule?
**A.** 3640 ng/mL

**Q.** What about the Tmax ([1]; 5 mg/kg, PO - 5 mpk) of the same molecule?
**A.** 0.67 h

**Q.** What about the half-life ([1]; 5 mg/kg, PO - 5 mpk) of the same molecule?
**A.** 1.89 h

**Q.** What about the bioavailability ([1]; 5 mg/kg) of the same molecule?
**A.** 57.7%

**Q.** What about the IC50 [2, 4] of the same molecule?
**A.** 251 nM

**Q.** What about the IC50 [2, 5] of the same molecule?
**A.** 220 nM

**Q.** For `Cc1cc(N2CC3(CN(C(=O)C(C)(C)O)C3)C2)cc2c(N(C)c3nc(-c4ccc(F)cc4)c(C#N)s3)c3c(nc12)COC3` [Example C31], which AUC ([1]; 5 mg/kg, PO - 5 mpk) is on record?
**A.** 32300 ng·h/mL

**Q.** And the Cmax ([1]; 5 mg/kg, PO - 5 mpk)?
**A.** 3480 ng/mL

**Q.** And the Tmax ([1]; 5 mg/kg, PO - 5 mpk)?
**A.** 0.42 h

**Q.** What about the half-life ([1]; 5 mg/kg, PO - 5 mpk) of the same molecule?
**A.** 3.77 h

**Q.** For `CN(c1nc(-c2ccc(F)cc2)c(C#N)s1)c1c2c(nc3c(F)cc(N4CC5(CN(C(=O)C(C)(C)O)C5)C4)cc13)CCC2` [Example C32], which AUC ([1]; 5 mg/kg, PO - 5 mpk) is on record?
**A.** 21400 ng·h/mL

**Q.** And the Cmax ([1]; 5 mg/kg, PO - 5 mpk)?
**A.** 2660 ng/mL

**Q.** What about the Tmax ([1]; 5 mg/kg, PO - 5 mpk) of the same molecule?
**A.** 0.5 h

**Q.** What about the half-life ([1]; 5 mg/kg, PO - 5 mpk) of the same molecule?
**A.** 2.56 h

**Q.** With `C[C@H]1CN(CC(=O)N2CC(O)C2)CCN1c1cc(F)c2nc3c(c(N(C)c4nc(-c5ccc(F)cc5)c(C#N)s4)c2c1)CCC3O` (stereo partly shown) [Example E7] as the molecule, how does the IC50 [3] read?
**A.** 15.4 nM

**Q.** And the IC50 [2, 4]?
**A.** 149 nM

**Q.** And the IC50 [2, 5]?
**A.** 327 nM

**Q.** Which results are given for `C[C@H]1CN(c2cc(F)c3nc4c(c(N(C)c5nc(-c6ccc(F)cc6)c(C#N)s5)c3c2)CCC4O)CCN1CC(=O)N1CC(O)C1` (stereo partly shown) [Example E8]?
**A.** IC50 [3]: 15.4 nM; IC50 [2, 4]: 175 nM; IC50 [2, 5]: 160 nM

**Q.** With `C[C@@H]1CN(c2cc(F)c3nc4c(c(N(C)c5nc(-c6ccc(F)cc6)c(C#N)s5)c3c2)CCC4O)CCN1CC(=O)N1CC(O)C1` (stereo partly shown) [Example E9] as the molecule, how does the IC50 [3] read?
**A.** 19.6 nM

**Q.** What about the IC50 [2, 4] of the same molecule?
**A.** 160 nM

**Q.** And the IC50 [2, 5]?
**A.** 152 nM

**Q.** For `CN(c1nc(-c2ccc(F)cc2)c(C#N)s1)c1c2c(nc3c(F)cc(N4CCN(CC(=O)N5CC(C)(O)C5)CC4)cc13)C(O)CC2` (stereo not shown) [Example E10], which IC50 [3] is on record?
**A.** 16.2 nM

**Q.** What about the IC50 [2, 4] of the same molecule?
**A.** 139 nM

**Q.** And the IC50 [2, 5]?
**A.** 270 nM

**Q.** Which IC50 [3] does the source give for `CN(c1nc(-c2ccc(F)cc2)c(C#N)s1)c1c2c(nc3c(F)cc(N4CC5(CN(C(=O)C6CCOCC6)C5)C4)cc13)C(O)CC2` (stereo not shown) [Example E14] here?
**A.** 17.3 nM

**Q.** What about the IC50 [2, 4] of the same molecule?
**A.** 281 nM

**Q.** What about the IC50 [2, 5] of the same molecule?
**A.** 651 nM

**Q.** With `CN(c1nc(-c2ccc(F)cc2)c(C#N)s1)c1c2c(nc3c(F)cc(N4CC5(CN(C(=O)C6(O)CCOCC6)C5)C4)cc13)C(O)CC2` (stereo not shown) [Example E15] as the molecule, how does the IC50 [3] read?
**A.** 13.3 nM

**Q.** What about the IC50 [2, 4] of the same molecule?
**A.** 266 nM

**Q.** And the IC50 [2, 5]?
**A.** 271 nM

**Q.** For `CN(c1nc(-c2ccc(F)cc2)c(C#N)s1)c1c2c(nc3c(F)cc(N4CC5(CN(C(=O)C(C)(C)O)C5)C4)cc13)C(O)CC2` (stereo not shown) [Example E16], which IC50 [3] is on record?
**A.** 16.8 nM

**Q.** What about the IC50 [2, 4] of the same molecule?
**A.** 410 nM

**Q.** And the IC50 [2, 5]?
**A.** 436 nM

**Q.** With `CN1CC[C@H](C(=O)N2CC3(C2)CN(c2cc(F)c4nc5c(c(N(C)c6nc(-c7ccc(F)cc7)c(C#N)s6)c4c2)CCC5O)C3)C1` (stereo partly shown) [Example E18] as the molecule, how does the IC50 [3] read?
**A.** 21.4 nM

**Q.** And the IC50 [2, 4]?
**A.** 250 nM

**Q.** And the IC50 [2, 5]?
**A.** 260 nM

**Q.** Which AUC ([1]; 5 mg/kg, PO - 5 mpk) does the source give for `Cc1cc(N2CC3(CN(C(=O)C(C)(C)O)C3)C2)nc2c(N(C)c3nc(-c4ccc(F)cc4)c(C#N)s3)c3c(nc12)C(C)(O)CC3` (stereo not shown) [Example E25] here?
**A.** 23900 ng·h/mL

**Q.** And the Cmax ([1]; 5 mg/kg, PO - 5 mpk)?
**A.** 2830 ng/mL

**Q.** And the Tmax ([1]; 5 mg/kg, PO - 5 mpk)?
**A.** 0.58 h

**Q.** And the half-life ([1]; 5 mg/kg, PO - 5 mpk)?
**A.** 2.66 h

**Q.** What about the IC50 [2, 4] of the same molecule?
**A.** 379 nM

**Q.** What about the IC50 [2, 5] of the same molecule?
**A.** 457 nM

**Q.** Which results are given for `Cc1cc(N2CC3(CN(C(=O)C(C)(C)O)C3)C2)cc2c(N(C)c3nc(-c4ccc(F)cc4)c(C#N)s3)c3c(nc12)C(O)CC3` (stereo not shown) [Example E26]?
**A.** AUC ([1]; 5 mg/kg, PO - 5 mpk): 31300 ng·h/mL; Cmax ([1]; 5 mg/kg, PO - 5 mpk): 4430 ng/mL; Tmax ([1]; 5 mg/kg, PO - 5 mpk): 1.75 h; half-life ([1]; 5 mg/kg, PO - 5 mpk): 2.16 h; IC50 [2, 4]: 516 nM; IC50 [2, 5]: 592 nM

**Q.** Which results are given for `Cc1cc(N2CC3(CN(C(=O)C(C)(C)O)C3)C2)nc2c(N(C)c3nc(-c4ccc(F)cc4)c(C#N)s3)c3c(nc12)C(O)CC3` (stereo not shown) [Example E32]?
**A.** AUC ([1]; 5 mg/kg, PO - 5 mpk): 8890 ng·h/mL; Cmax ([1]; 5 mg/kg, PO - 5 mpk): 2040 ng/mL; Tmax ([1]; 5 mg/kg, PO - 5 mpk): 1.58 h; half-life ([1]; 5 mg/kg, PO - 5 mpk): 1.51 h; IC50 [2, 4]: 202 nM; IC50 [2, 5]: 185 nM
